# Measurements published in ChEMBL document CHEMBL1130740, “Sugar-substituted 2-azetidinone cholesterol absorption inhibitors: enhanced potency by modification of the sugar” (1998).
# Assays:
# Assay type in all cases: functional, Cricetulus griseus
# [1] = system: Cricetinae gen. sp.; experiment: Dose required to inhibit cholesterol absorption in cholesterol fed hamster model
# [2] = system: Cricetinae gen. sp.; experiment: Compound was tested for percent reduction of liver cholesterol esters absorption in cholesterol fed hamster model at a dose of 3 mg/kg/day
# [3] = system: Cricetinae gen. sp.; experiment: Compound was tested for percent reduction of serum cholesterol absorption in cholesterol fed hamster model at a dose of 3 mg/kg/day
SMILES,ED50 [1] [mg/kg/day],Reduction [2] [%],Reduction [3] [%]
O=C1[C@H](CC[C@H](O)c2ccc(F)cc2)[C@@H](c2ccc(O)cc2)N1c1ccc(F)cc1 [EZETIMIBE],0.04,-93,-43
CC(=O)OC[C@H]1O[C@@H](O[C@H]2[C@H](OC(C)=O)[C@@H](OC(C)=O)[C@H](Oc3ccc([C@@H]4[C@@H](CC[C@H](OC(C)=O)c5ccc(F)cc5)C(=O)N4c4ccc(F)cc4)cc3)O[C@@H]2COC(C)=O)[C@H](OC(C)=O)[C@@H](OC(C)=O)[C@@H]1OC(C)=O,–,-75,-43
O=C(O)[C@H]1O[C@@H](Oc2ccc([C@@H]3[C@@H](CC[C@H](O)c4ccc(F)cc4)C(=O)N3c3ccc(F)cc3)cc2)[C@H](O)[C@@H](O)[C@@H]1O,0.17,-95,-50
CC(=O)OC[C@H]1O[C@@H](Oc2ccc([C@@H]3[C@@H](CC[C@H](OC(C)=O)c4ccc(F)cc4)C(=O)N3c3ccc(F)cc3)cc2)[C@H](OC(C)=O)[C@@H](OC(C)=O)[C@@H]1OC(C)=O,–,-58,-14
COC(=O)[C@H]1O[C@@H](Oc2ccc([C@@H]3[C@@H](CC[C@H](O)c4ccc(F)cc4)C(=O)N3c3ccc(F)cc3)cc2)[C@H](O)[C@@H](O)[C@@H]1O,0.04,-89,-48
COc1ccc([C@@H]2[C@@H](CCCc3ccccc3)C(=O)N2c2ccc(OC)cc2)cc1 [SCH-48461],2,–,–
COC(=O)[C@H]1O[C@@H](Oc2ccc([C@@H]3[C@@H](CC[C@H](OC(C)=O)c4ccc(F)cc4)C(=O)N3c3ccc(F)cc3)cc2)[C@H](OC(C)=O)[C@@H](OC(C)=O)[C@@H]1OC(C)=O,0.09,-96,-53
O=C1[C@H](CC[C@H](O)c2ccc(F)cc2)[C@@H](c2ccc(O[C@@H]3O[C@H](CO)[C@@H](O)[C@H](O)[C@H]3O)cc2)N1c1ccc(F)cc1,0.08,-92,-48
O=C1[C@H](CC[C@H](O)c2ccc(F)cc2)[C@@H](c2ccc(O[C@@H]3O[C@H](CO)[C@@H](O[C@@H]4O[C@H](CO)[C@@H](O)[C@H](O)[C@H]4O)[C@H](O)[C@H]3O)cc2)N1c1ccc(F)cc1,0.01,-90,-36
